Source: patent US6534289B1, “Nucleic acids encoding mGLuR/CaR chimera” (NPS Pharmaceuticals, Inc., priority 1995, dated 2003)

How the values were obtained:
human CaR = target: T1, human CaR (Homo sapiens, UniProt P41180); assay: Xenopus oocyte voltage clamp, Cl− currents, CaR; type: cell-based
T1 construct: expressed in transfected cells; host or cells: Xenopus laevis oocytes injected with in vitro transcribed RNA from phPCaR4.0
T1 sequence (P41180 20-1078): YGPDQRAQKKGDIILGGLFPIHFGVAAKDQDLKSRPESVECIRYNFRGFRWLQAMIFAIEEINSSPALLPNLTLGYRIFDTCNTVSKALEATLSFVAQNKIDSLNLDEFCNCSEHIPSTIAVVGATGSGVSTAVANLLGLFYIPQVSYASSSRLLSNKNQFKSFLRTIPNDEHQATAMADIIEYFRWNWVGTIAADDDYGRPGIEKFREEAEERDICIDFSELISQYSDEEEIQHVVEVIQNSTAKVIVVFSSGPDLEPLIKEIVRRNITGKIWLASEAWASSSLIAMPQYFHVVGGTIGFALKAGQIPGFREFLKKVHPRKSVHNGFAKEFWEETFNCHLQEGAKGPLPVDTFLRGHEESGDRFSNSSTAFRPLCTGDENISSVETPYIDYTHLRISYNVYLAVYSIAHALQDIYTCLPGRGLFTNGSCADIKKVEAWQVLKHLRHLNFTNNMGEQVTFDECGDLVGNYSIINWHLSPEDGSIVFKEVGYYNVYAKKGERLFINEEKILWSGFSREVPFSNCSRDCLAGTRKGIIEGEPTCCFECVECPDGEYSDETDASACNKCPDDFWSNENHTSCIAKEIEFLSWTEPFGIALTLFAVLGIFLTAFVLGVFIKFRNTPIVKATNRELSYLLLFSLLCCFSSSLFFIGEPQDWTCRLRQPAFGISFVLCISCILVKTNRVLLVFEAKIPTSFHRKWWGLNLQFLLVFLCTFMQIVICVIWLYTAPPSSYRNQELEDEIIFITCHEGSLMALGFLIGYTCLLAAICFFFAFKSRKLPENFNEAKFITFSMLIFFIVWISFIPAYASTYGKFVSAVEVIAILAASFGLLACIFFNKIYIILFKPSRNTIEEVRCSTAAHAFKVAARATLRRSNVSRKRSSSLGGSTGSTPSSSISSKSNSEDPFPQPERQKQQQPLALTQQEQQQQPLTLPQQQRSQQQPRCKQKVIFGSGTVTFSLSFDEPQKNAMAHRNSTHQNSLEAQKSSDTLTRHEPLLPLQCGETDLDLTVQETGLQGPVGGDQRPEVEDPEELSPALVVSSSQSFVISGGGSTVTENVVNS

[1] = test system: HEK293 cells expressing pCEPCaR/R1; assay: HEK293/pCEPCaR/R1 Fura assay; type: cell-based, human; settings: fura-2 loaded stably transfected HEK293 cells, FIG. 9
Method: The DNA from plasmid pCaR/R1 was digested and cloned into the commercially available episomal mammalian expression vector, pCEP4 (Invitrogen), using the restriction enzymes Kpn I and Not I. The ligation products were transfected into DH5a cells which had been made competent for DNA transformation. […] A clone was selected from the colonies which grew. This clone, pCEPCaR/R1 was characterized by restriction enzyme digestion.
Human embryonic kidney cells (293, ATCC, CRL 1573) were grown in a routine manner. Cells were plated in 10 cm cell-culture plates in Dulbecco's modified Eagle's medium (D-MEM) containing 10% fetal calf serum (FCS) and 1×Penicillin-Streptomycin (PS, Life Technologies) so that they would be ˜70% confluent after an overnight incubation. […]
Measurements of intracellular calcium release in response to increases in extracellular calcium is quantitated using the Fura assay (Parks et al. 1989). […] Measurements of fluorescence are performed at 37° C. with constant stirring using a custom-built spectrofluorimeter (Biomedical Instrumentation Group, University of Pennsylvania). […] To calibrate fluorescence signals, digitonin (Sigma, St. Louis, Mo.; catalog # D 5628; 50 μg/ml, final) is added to obtain Fmax, and the apparent Fmin is determined by adding EGTA (10 mM, final) and Tris base (pH ˜10, final). […]

mGluR1/CaR = target: T2, mGluR1/CaR (UniProt P23385+P41180); assay: Xenopus oocyte voltage clamp, Cl− currents, mGluR1/CaR chimera; type: cell-based, rat mGluR1 / human calcium receptor; settings: FIG. 6
T2 construct: expressed in transfected cells; host or cells: Xenopus laevis oocytes injected with in vitro transcribed RNA
T2 sequence (P23385+P41180 fused): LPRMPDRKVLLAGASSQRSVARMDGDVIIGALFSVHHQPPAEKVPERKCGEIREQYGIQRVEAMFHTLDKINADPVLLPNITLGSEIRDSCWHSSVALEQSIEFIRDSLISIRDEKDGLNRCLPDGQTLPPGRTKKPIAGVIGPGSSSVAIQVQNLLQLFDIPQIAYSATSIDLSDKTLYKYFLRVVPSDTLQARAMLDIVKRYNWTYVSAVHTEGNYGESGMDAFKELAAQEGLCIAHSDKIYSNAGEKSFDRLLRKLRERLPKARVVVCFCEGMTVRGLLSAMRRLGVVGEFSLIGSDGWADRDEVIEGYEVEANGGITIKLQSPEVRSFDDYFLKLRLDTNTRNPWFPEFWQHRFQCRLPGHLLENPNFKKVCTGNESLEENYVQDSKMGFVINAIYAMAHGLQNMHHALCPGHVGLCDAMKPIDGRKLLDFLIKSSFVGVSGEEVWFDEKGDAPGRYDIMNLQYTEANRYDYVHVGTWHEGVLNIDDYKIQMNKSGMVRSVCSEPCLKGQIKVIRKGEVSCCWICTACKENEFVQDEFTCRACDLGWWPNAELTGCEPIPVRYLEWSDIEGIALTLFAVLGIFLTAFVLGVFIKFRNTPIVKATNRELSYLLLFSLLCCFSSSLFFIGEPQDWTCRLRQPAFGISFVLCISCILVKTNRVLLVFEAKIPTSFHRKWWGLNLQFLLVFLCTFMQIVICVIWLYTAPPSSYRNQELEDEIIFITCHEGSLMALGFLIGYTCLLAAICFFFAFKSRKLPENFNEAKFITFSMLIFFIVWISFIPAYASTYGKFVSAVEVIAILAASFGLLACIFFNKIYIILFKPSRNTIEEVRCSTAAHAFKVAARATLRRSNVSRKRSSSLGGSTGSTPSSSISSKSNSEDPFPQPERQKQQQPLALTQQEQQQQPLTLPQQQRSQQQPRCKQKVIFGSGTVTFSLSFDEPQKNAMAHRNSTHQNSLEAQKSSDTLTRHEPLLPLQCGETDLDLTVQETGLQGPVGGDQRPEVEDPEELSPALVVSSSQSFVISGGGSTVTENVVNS

Compound: [Ca+2] [calcium]
- activation of CaR, response amplitudes (Cl− currents in response to increases in intracellular Ca^2+) (human CaR; Xenopus oocyte, increasing extracellular calcium, FIG. 7): activation
- intracellular calcium [1]: increases in intracellular calcium

Compound: N[C@@H](Cn1oc(=O)[nH]c1=O)C(=O)O [quisqualate]
- activation of mGluR1/CaR as measured by Cl− currents generated in response to the release of intracellular Ca^2+ (mGluR1/CaR): activation

Compound: N[C@@H](CCC(=O)O)C(=O)O [l-glutamate]
- Cl− current (human CaR; Xenopus oocytes injected with human CaR RNA, FIG. 8B): elicits oscillatory increases in Cl− current
